Experimental data from patent publication EP3227262B1, “SULFIDE ALKYL AND PYRIDYL REVERSE SULFONAMIDE COMPOUNDS FOR HBV TREATMENT” (Novira Therapeutics Inc., priority 2014, dated 2016).

tested on: HBV; assay: Inhibition of HBV replication dot-blot assay in HBV-producing hepatoma cell line; format: cell-based; conditions: Hepatitis B virus, 144 h; activity in Dot-Blot assay; HepG2-2.2.15 cells; reduction in HBV DNA levels, six days
Experimental: Compounds active in the HBV assembly assay are tested for their activity and toxicity in cellular assay. In the first anti-viral assay, the ability of compounds to inhibit HBV replication in an HBV-producing hepatoma cell line using the dot-blot method is evaluated.
(§1) Briefly, confluent monolayers of HepG2-2.2.15 cells are incubated with complete medium containing various concentrations of a test compound. Three days later, the culture medium is replaced with fresh medium containing the appropriately diluted test compound. Six days following the initial administration of the test compound, the cell culture supernatant is collected, and cell lysis is performed. The samples are applied onto Nylos membranes and DNA is immobilized to the membrane by UV cross-linking. After pre-hybridization, the HBV probe is added and the hybridization is performed overnight. The membranes are exposed to the KODAK films; antiviral activity is calculated from the reduction in HBV DNA levels (EC50). The EC50 for antiviral activity is calculated from the dose response curves of active compounds. Assay performance over time is monitored by the use of the standard positive control compounds ETV, BAY 41-4109, and HAP-1.
Selected compounds are tested for their activity and toxicity in cellular assay. In the first anti-viral assay, the ability of compounds to inhibit HBV replication in an HBV-producing hepatoma cell line using the dot-blot method is evaluated.
as §1, with “Confluent monolayers” for “Briefly, confluent monolayers”, “lysis was” for “lysis is”

Q: Which EC50 does the source give for `O=C(Nc1ccc(F)c(Cl)c1)c1ccc(F)c(SC2CCCCC2F)c1` (racemic) [Compound 72, (±)-N-(3-Chloro-4-fluorophenyl)-4-fluoro-3-((2-fluorocyclohexyl)thio)benzamide] here?
A: Its EC50 is under 10 µM.

Q: How did the EC50 turn out when `O=C(O)CC1CCC(Sc2cc(C(=O)Nc3cc(F)c(F)c(F)c3)ccc2F)C1` (racemic) [Compound 101, (±)-2-(3-((2-Fluoro-5-((3,4,5-trifluorophenyl)carbamoyl)phenyl)thio)cyclopentyl)acetic acid] was run?
A: The EC50 was under 10 µM.

Q: For `O=C(O)CC1CCC(Sc2cc(C(=O)Nc3ccc(F)c(Cl)c3)ccc2F)C1` (racemic) [Compound 102, (±)-2-(3-((5-((3-Chloro-4-fluorophenyl)carbamoyl)-2-fluorophenyl)thio)cyclopentyl)acetic acid], which EC50 is on record?
A: Its EC50 is under 10 µM.

Q: With `O=C(O)CC1CCC(Sc2cc(C(=O)Nc3ccc(F)c(F)c3)ccc2F)C1` (racemic) [Compound 105, (±)-2-(3-((5-((3,4-Difluorophenyl)carbamoyl)-2-fluorophenyl)thio)cyclopentyl)acetic acid] as the molecule, how does the EC50 read?
A: The EC50 was under 10 µM.

Q: With `O=C(Nc1ccc(F)c(Cl)c1)c1ccnc(NS(=O)(=O)C2CCOC2)c1` (racemic) [Compound 161, (±)-N-(3-Chloro-4-fluorophenyl)-2-(tetrahydrofuran-3-sulfonamido)isonicotinamide] as the molecule, how does the EC50 read?
A: Its EC50 is under 10 µM.

Q: `O=C(Nc1ccc(F)c(Cl)c1)c1ccnc(NS(=O)(=O)C2CCCOC2)c1` (racemic) [Compound 179, (±)-N-(3-Chloro-4-fluorophenyl)-2-(tetrahydro-2H-pyran-3-sulfonamido)isonicotinamide] was tested. Which EC50 did it give?
A: The EC50 was under 10 µM.

Q: How did the EC50 turn out when `O=C(Nc1ccc(F)c(Cl)c1)c1cccc(NS(=O)(=O)C2CCOC2)c1` (racemic) [Compound 202, (±)-N-(3-chloro-4-fluorophenyl)-3-(tetrahydrofuran-3-sulfonamido)benzamide] was run?
A: The EC50 was under 10 µM.

Q: With `O=C(Nc1ccc(F)c(Cl)c1)c1cccc(NS(=O)(=O)CC2CCCO2)c1` (racemic) [Compound 203, (±)-N-(3-chloro-4-fluorophenyl)-3-((tetrahydrofuran-2-yl)methylsulfonamido)benzamide] as the molecule, how does the EC50 read?
A: The EC50 was under 10 µM.

Q: Which EC50 does the source give for `COCC(C)S(=O)(=O)Nc1cccc(C(=O)Nc2ccc(F)c(Cl)c2)c1` (racemic) [Compound 204, (±)-N-(3-chloro-4-fluorophenyl)-3-(2-methoxy-1-methylethylsulfonamido)benzamide] here?
A: Its EC50 is under 10 µM.

Q: `CC1OCCC1S(=O)(=O)Nc1cccc(C(=O)Nc2ccc(F)c(Cl)c2)c1` (racemic) [Compound 205, (±)-N-(3-chloro-4-fluorophenyl)-3-(2-methyltetrahydrofuran-3-sulfonamido)benzamide] was tested. Which EC50 did it give?
A: The EC50 was under 10 µM.

Q: For `O=C(Nc1ccc(F)c(Cl)c1)c1cccc(NS(=O)(=O)C2CS(=O)(=O)CC2O)c1` (racemic) [Compound 206, (±)-N-(3-chloro-4-fluorophenyl)-3-(4-hydroxy-1,1-dioxidotetrahydrothiophene-3-sulfonamido)benzamide], which EC50 is on record?
A: The EC50 was under 10 µM.

Q: With `O=C(Nc1cc(F)c(F)c(F)c1)c1ccc(F)c(SC2CCCC2)c1` [Compound 3, 3-(Cyclopentylthio)-4-fluoro-N-(3,4,5-trifluorophenyl)benzamide] as the molecule, how does the EC50 read?
A: The EC50 was under 10 µM.

Q: For `CC(C)(C)Sc1cc(C(=O)Nc2cc(F)c(F)c(F)c2)ccc1F` [Compound 5, 3-(tert-Butylthio)-4-fluoro-N-(3,4,5-trifluorophenyl)benzamide], which EC50 is on record?
A: Its EC50 is under 10 µM.

Q: For `O=C(Nc1cc(F)c(F)c(F)c1)c1ccc(F)c(SCCO)c1` [Compound 7, 4-Fluoro-3-((2-hydroxyethyl)thio)-N-(3,4,5-trifluorophenyl)benzamide], which EC50 is on record?
A: The EC50 was under 10 µM.

Q: For `Cc1cc(NC(=O)c2ccc(F)c(SC3CCCCC3)c2)ccc1F` [Compound 8, 3-(Cyclohexylthio)-4-fluoro-N-(4-fluoro-3-methylphenyl)benzamide], which EC50 is on record?
A: The EC50 was under 10 µM.

Q: With `Cc1cc(NC(=O)c2ccc(F)c(SC3CCCC3)c2)ccc1F` [Compound 9, 3-(Cyclopentylthio)-4-fluoro-N-(4-fluoro-3-methylphenyl)benzamide] as the molecule, how does the EC50 read?
A: The EC50 was under 10 µM.

Q: `O=C(Nc1cc(F)c(F)c(F)c1)c1ccc(F)c(SCCCO)c1` [Compound 17, 4-Fluoro-3-((3-hydroxypropyl)thio)-N-(3,4,5-trifluorophenyl)benzamide] was tested. Which EC50 did it give?
A: The EC50 was under 10 µM.

Q: How did the EC50 turn out when `CC(C)(O)CCSc1cc(C(=O)Nc2cc(F)c(F)c(F)c2)ccc1F` [Compound 19, 4-Fluoro-3-((3-hydroxy-3-methylbutyl)thio)-N-(3,4,5-trifluorophenyl)benzamide] was run?
A: The EC50 was under 10 µM.

Q: Which EC50 does the source give for `O=C(Nc1cc(F)c(F)c(F)c1)c1ccc(F)c(SCCCCO)c1` [Compound 23, 4-Fluoro-3-((4-hydroxybutyl)thio)-N-(3,4,5-trifluorophenyl)benzamide] here?
A: The EC50 was under 10 µM.

Q: Which EC50 does the source give for `O=C(Nc1ccc(F)c(Cl)c1)c1ccc(F)c(SCCO)c1` [Compound 26, N-(3-Chloro-4-fluorophenyl)-4-fluoro-3-((2-hydroxyethyl)thio)benzamide] here?
A: Its EC50 is under 10 µM.

Q: Which EC50 does the source give for `O=C(Nc1ccc(F)c(Cl)c1)c1ccc(F)c(SCCCO)c1` [Compound 27, N-(3-Chloro-4-fluorophenyl)-4-fluoro-3-((3-hydroxypropyl)thio)benzamide] here?
A: Its EC50 is under 10 µM.

Q: For `O=C(Nc1ccc(F)c(Cl)c1)c1ccc(F)c(SCC2CCOCC2)c1` [Compound 47, N-(3-Chloro-4-fluorophenyl)-4-fluoro-3-(((tetrahydro-2H-pyran-4-yl)methyl)thio)benzamide], which EC50 is on record?
A: The EC50 was under 10 µM.

Q: For `O=C(Nc1cc(F)c(F)c(F)c1)c1c[nH]c(=O)c(SC2CCCC2)c1` [Compound 48, 5-(Cyclopentylthio)-6-oxo-N-(3,4,5-trifluorophenyl)-1,6-dihydropyridine-3-carboxamide], which EC50 is on record?
A: Its EC50 is under 10 µM.

Q: With `CC(C)(Sc1cc(C(=O)Nc2ccc(F)c(Cl)c2)ccc1F)C(=O)O` [Compound 51, 2-((5-((3-Chloro-4-fluorophenyl)carbamoyl)-2-fluorophenyl)thio)-2-methylpropanoic acid] as the molecule, how does the EC50 read?
A: Its EC50 is under 10 µM.

Q: For `O=C(Nc1ccc(F)c(Cl)c1)c1ccc(F)c(SC2CCCCCC2)c1` [Compound 52, N-(3-Chloro-4-fluorophenyl)-3-(cycloheptylthio)-4-fluorobenzamide], which EC50 is on record?
A: Its EC50 is under 10 µM.

Q: With `O=C(Nc1ccc(F)c(Cl)c1)c1ccc(F)c(SCC2COC2)c1` [Compound 60, N-(3-Chloro-4-fluorophenyl)-4-fluoro-3-((oxetan-3-ylmethyl)thio)benzamide] as the molecule, how does the EC50 read?
A: Its EC50 is under 10 µM.

Q: How did the EC50 turn out when `O=C(Nc1ccc(F)c(Cl)c1)c1ccc(F)c(SC2COC2)c1` [Compound 65, N-(3-Chloro-4-fluorophenyl)-4-fluoro-3-(oxetan-3-ylthio)benzamide] was run?
A: The EC50 was under 10 µM.

Q: For `COc1ccc(C(=O)Nc2ccc(F)c(Cl)c2)cc1SC1CCCCC1` [Compound 69, N-(3-Chloro-4-fluorophenyl)-3-(cyclohexylthio)-4-methoxybenzamide], which EC50 is on record?
A: The EC50 was under 10 µM.

Q: How did the EC50 turn out when `COc1ccc(C(=O)Nc2ccc(F)c(F)c2)cc1SC1CCCCC1` [Compound 80, 3-(Cyclohexylthio)-N-(3,4-difluorophenyl)-4-methoxybenzamide] was run?
A: Its EC50 is under 10 µM.

Q: `O=C(Nc1cc(F)c(F)c(F)c1)c1ccnc(NS(=O)(=O)C2CC2)c1` [Compound 127, 2-(Cyclopropanesulfonamido)-N-(3,4,5-trifluorophenyl)isonicotinamide] was tested. Which EC50 did it give?
A: The EC50 was under 10 µM.

Q: Which EC50 does the source give for `O=C(Nc1ccc(F)c(F)c1)c1ccnc(NS(=O)(=O)C2CC2)c1` [Compound 128, 2-(Cyclopropanesulfonamido)-N-(3,4-difluorophenyl)isonicotinamide] here?
A: Its EC50 is under 10 µM.

Q: For `CC1(S(=O)(=O)Nc2cc(C(=O)Nc3ccc(F)c(Cl)c3)ccn2)CC1` [Compound 130, N-(3-Chloro-4-fluorophenyl)-2-(1-methylcyclopropanesulfonamido)isonicotinamide], which EC50 is on record?
A: The EC50 was under 10 µM.

Q: Which EC50 does the source give for `CCS(=O)(=O)Nc1cc(C(=O)Nc2ccc(F)c(Cl)c2)ccn1` [Compound 131] here?
A: Its EC50 is under 10 µM.

Q: `CCCS(=O)(=O)Nc1cc(C(=O)Nc2ccc(F)c(Cl)c2)ccn1` [Compound 133, N-(3-Chloro-4-fluorophenyl)-2-(propylsulfonamido)isonicotinamide] was tested. Which EC50 did it give?
A: The EC50 was under 10 µM.

Q: `O=C(Nc1ccc(F)c(Cl)c1)c1ccnc(NS(=O)(=O)C2CCCCC2)c1` [Compound 134, N-(3-Chloro-4-fluorophenyl)-2-(cyclohexanesulfonamido)isonicotinamide] was tested. Which EC50 did it give?
A: Its EC50 is under 10 µM.

Q: With `O=C(Nc1ccc(F)c(Cl)c1)c1cc(F)nc(NS(=O)(=O)C2CC2)c1` [Compound 137, N-(3-Chloro-4-fluorophenyl)-2-(cyclopropanesulfonamido)-6-fluoroisonicotinamide] as the molecule, how does the EC50 read?
A: Its EC50 is under 10 µM.

Q: With `O=C(Nc1ccc(F)c(Cl)c1)c1cc(F)nc(NS(=O)(=O)c2ccccc2)c1` [Compound 138, N-(3-Chloro-4-fluorophenyl)-2-fluoro-6-(phenylsulfonamido)isonicotinamide] as the molecule, how does the EC50 read?
A: Its EC50 is under 10 µM.

Q: `O=C(Nc1ccc(F)c(Cl)c1)c1ccnc(NS(=O)(=O)Cc2ccccc2)c1` [Compound 139, N-(3-Chloro-4-fluorophenyl)-2-(phenylmethylsulfonamido)isonicotinamide] was tested. Which EC50 did it give?
A: The EC50 was under 10 µM.
